Columns and labels:
[1] = test system: cells derived from human embryonic stem cells SA01; experiment: Growth capacity (maximum number of cells before senescence) of MSC type cells cultivated with or without FGF2 and AA2P; type: cell-based; settings: versus control FCS20%
Procedure: (§1) The role of FGF2 and of ascorbic acid 2-phosphate on the growth capacities of the isolated cells according to the method of the invention was analyzed on cells derived from human embryonic stem cells SA01. The cells are cultivated in the presence of 20% fetal calf serum (control condition) and in the presence or in the absence of FGF2 and of ascorbic acid 2-phosphate (AA2P).

[2] = test system: SSEA4; experiment: Flow cytometry of SSEA4 on MSC type cells derived from hES SA01; type: cell-based, human; settings: added to control FCS20%; FGF2 10 ng/ml, AA2P 1 mM; control 7
Procedure: as §1
The presence of SSEA4 on cells cultivated under these different conditions were analyzed by flow cytometry by using a specific antibody directed against SSEA4.

[3] = test system: <<MSC>> SA01 cells derived from hES cells (SA01); experiment: Comparative toxicity of statins in 384-well plates, Cell Titer Glow, with and without mevalonate; type: cell-based, human; settings: for cell viability as percentage of the result without any treatment, With Mevalonate / cell viability as percentage of the result without any treatment, Without Mevalonate: human, 72 h
Procedure: For this experiment, the differentiated <<MSC>> SA01 cells derived from hES cells (SA01) were tested in 384-well plates by using a distribution robot and cell viability was measured by Cell Titer Glow after 72 hours of cultivation.

[4] = test system: <<MSC>> WT cells derived from hES cells; experiment: Toxicity of simvastatin in 384-well multiwells, Cell Titer Glow; type: cell-based, human; settings: 72 hours, 20% fetal calf serum, 2,000 cells per well, DMSO 0.2% 987206
From the text: Determination of the number of cells by the ATP amount is therefore possible. This approach allows automated readout of the number of cells. Similar results are obtained by using traces of mitochondrial activity. Differentiated cells of the MSC type, derived from hES cells, <<MSC>> WT, were sown on 384 multiwells gelatinized beforehand by using a distribution robot of the Bravo type, at the concentration of 2,000 cells per well.

[5] = test system: MSC cells derived from hES human cells SA01; experiment: Prestwick bank screening with and without mevalonate, Cell Titer Glow; type: cell-based; settings: 2.5 μM, 72 h, mevalonate 2 mM, 96 wells, 20% fetal calf serum

Molecule | increase of the amount of accumulated maximum cells [1] | Average fluorescence intensity (SSEA4) [2] | cell viability as percentage of the result without any treatment, With Mevalonate [3] | cell viability as percentage of the result without any treatment, Without Mevalonate [3] | further results
O=C1O[C@H]([C@@H](O)CO)C(O)=C1OP(=O)(O)O [AA2P, Ascorbic Acid 2-Phosphate] | less than 6 log factor | 7 | – | – | –
CC(C)n1c(/C=C/C(O)CC(O)CC(=O)O)c(-c2ccc(F)cc2)c2ccccc21 (centres unmarked) [Fluvostatin] | – | – | 104% | 32.8% | comparative toxicity of statins [3]: more toxic than simvastatin
CCC(C)(C)C(=O)O[C@H]1C[C@@H](C)C=C2C=C[C@H](C)[C@H](CC[C@@H]3C[C@@H](O)CC(=O)O3)[C@H]21 [Simvastatin] | – | – | 98.3% | 48.7% | amount of cells by Cell Titer Glow, Statin 2 μM [4]: 474583
FGF2: growth factor from the FGF family added to the culture medium | less than 5 log factor | 10 | – | – | –
Mevinolin | – | – | – | – | selected in screening 1 (toxicity of more than 35% in the absence, less than 20% in the presence of mevalonate) [5]: isolated

— patent publication US9250231B2, “Method for selecting mevalonate synthesis modulators using cells derived from human pluripotent cells” (Centre d'Etude des Cellules Souches, priority 2010, dated 2016)
